Laboratory results as given in publication PMC8286840, “Identifying SARS-CoV-2 antiviral compounds by screening for small molecule inhibitors of Nsp3 papain-like protease” (Biochemical Journal, 2021).
Counter-ions that a name gives are not always drawn. Like-named read-outs stand apart in the source and are kept apart here. Where a SMILES comes first, the peptide text is derived from it.

Columns and labels:
[1] = target: T1, SARS-CoV-2 PLpro (nsp3 1564–1878) (Severe acute respiratory syndrome coronavirus 2, UniProt P0DTD1); assay: biochemical; design: FRET-quenched peptide (Pro3) cleavage by PLpro, 10 min pre-incubation, slope over 20 min, normalised to no-compound control; conditions: low concentration screen, read-out: % of control remaining
[2] = target: T1, SARS-CoV-2 PLpro (nsp3 1564–1878); assay: biochemical; design: FRET-quenched peptide (Pro3) cleavage by PLpro, 10 min pre-incubation, slope over 20 min, normalised to no-compound control; conditions: high concentration screen, read-out: % of control remaining

## OC[C@H]1NC[C@@H](O)[C@@H]1O [1,4-Dideoxy-1,4-imino-D-arabinitol]
[1]; Well no.=589
  remaining activity at 1.25 µM: 102%
[2]; Well no.=589
  remaining activity at 3.75 µM: 100%

## NC(N)=NCCC[C@H](N)C(=O)NCC(=O)N[C@@H](CCC(=O)O)C(=O)N[C@@H](CO)C(=O)O [Arg-Gly-Glu-Ser(TFA)] (H-RGES-OH)
[1]; Well no.=7924
  remaining activity at 1.25 µM: 96.4%
[2]; Well no.=7924
  remaining activity at 3.75 µM: 97.3%

## CCOc1ccc(Cc2cc([C@@H]3O[C@H](SC)[C@@H](O)[C@H](O)[C@H]3O)ccc2Cl)cc1 [Sotagliflozin (LX4211)]
[1]; Well no.=8820
  remaining activity at 1.25 µM: 97.4%
[2]; Well no.=8820
  remaining activity at 3.75 µM: 95.6%

## NCC(=O)N1C[C@H](NC(=O)c2ccccc2)C[C@H]1C(=O)O [Danegaptide Hydrochloride]
[1]; Well no.=8026
  remaining activity at 1.25 µM: 98.8%
[2]; Well no.=8026
  remaining activity at 3.75 µM: 100%

## Cc1cc(C(=O)O)ccc1O [4-Hydroxy-3-methylbenzoic acid]
[1]; Well no.=6723
  remaining activity at 1.25 µM: 100%
[2]; Well no.=6723
  remaining activity at 3.75 µM: 101%

## C[C@]12CCC(=O)C(O)=C1CC[C@@H]1[C@@H]2CC[C@]2(C)C(=O)CC[C@@H]12 [4-Androsten-4-ol-3,17-dione]
[1]; Well no.=305
  remaining activity at 1.25 µM: 96.5%
[2]; Well no.=305
  remaining activity at 3.75 µM: 93.5%

## Cc1cc(C)nc(NS(=O)(=O)c2ccc(NC(=S)NC(=O)COc3ccc(Br)cc3Cl)cc2)n1 [ZCL278]
[1]; Well no.=7884
  remaining activity at 1.25 µM: 98.2%
[1]; Well no.=8389
  remaining activity at 1.25 µM: 102%
[2]; Well no.=7884
  remaining activity at 3.75 µM: 99.2%
[2]; Well no.=8389
  remaining activity at 3.75 µM: 96.3%

## CCCCCC[C@H]1C(=O)O[C@H](C)[C@H](NC(=O)c2cccc(NC=O)c2O)C(=O)O[C@@H](C)[C@@H]1OC(=O)CC(C)C [Antimycin A1]
[1]; Well no.=3158
  remaining activity at 1.25 µM: 98.9%
[2]; Well no.=3158
  remaining activity at 3.75 µM: 98.6%

## CNCCC(Oc1ccc(C(F)(F)F)cc1)c1ccccc1 (stereo not shown) [Fluoxetine hydrochloride]
[1]; Well no.=761
  remaining activity at 1.25 µM: 95.3%
[2]; Well no.=761
  remaining activity at 3.75 µM: 93.4%

## CC(CCc1ccc(O)cc1)NCCc1ccc(O)c(O)c1 (stereo not shown) [Dobutamine.HCl]
[1]; Well no.=1781
  remaining activity at 1.25 µM: 101%
[2]; Well no.=1781
  remaining activity at 3.75 µM: 103%

## Cc1cnc(-c2cc(N3CCN(C(=O)CCS(C)(=O)=O)CC3)ncc2Cl)c(C)c1 [PF-5274857 hydrochloride]
[1]; Well no.=5701
  remaining activity at 1.25 µM: 102%
[2]; Well no.=5701
  remaining activity at 3.75 µM: 103%

## O=c1c2ccccc2[nH]c(=S)n1CCN1CCC(=C(c2ccc(F)cc2)c2ccc(F)cc2)CC1 [Diacylglycerol Kinase Inhibitor II]
[1]; Well no.=597
  remaining activity at 1.25 µM: 93.5%
[1]; Well no.=2369
  remaining activity at 1.25 µM: 98.2%
[2]; Well no.=597
  remaining activity at 3.75 µM: 95.5%
[2]; Well no.=2369
  remaining activity at 3.75 µM: 99.1%

## COc1cc2c(cc1OC)[C@H]1CC(=O)[C@H](CC(C)C)CN1CC2 [(3R,11bR)-3-isobutyl-9,10-dimethoxy-1,3,4,6,7,11b-hexahydro-2H-pyrido[2,1-a]isoquinolin-2-one]
[1]; Well no.=5582
  remaining activity at 1.25 µM: 93.7%
[2]; Well no.=5582
  remaining activity at 3.75 µM: 98.6%

## CC1(C)CC(NC(=O)C(=O)Nc2ccc(Cl)cc2)CC(C)(C)N1 [N~1~-(4-chlorophenyl)-N~2~-(2,2,6,6-tetramethyl-4-piperidinyl)ethanediamide]
[1]; Well no.=6039
  remaining activity at 1.25 µM: 97.6%
[2]; Well no.=6039
  remaining activity at 3.75 µM: 101%

## O=C(O)CCCN1CCC(O[C@@H](c2ccc(Cl)cc2)c2ccccn2)CC1 [Bepotastine (Beslilate)]
[1]; Well no.=6333
  remaining activity at 1.25 µM: 97.3%
[2]; Well no.=6333
  remaining activity at 3.75 µM: 93.3%

## CO[C@@H]1COCC[C@@H]1N[C@@H]1CC[C@@](C(=O)N2CCc3ncc(C(F)(F)F)cc3C2)(C(C)C)C1 [MK-0812 (Succinate)]
[1]; Well no.=8321
  remaining activity at 1.25 µM: 97.5%
[2]; Well no.=8321
  remaining activity at 3.75 µM: 97.9%

## O=c1ccc2ccc(OCCCCN3CCN(c4cccc5sccc45)CC3)cc2[nH]1 [Brexpiprazole]
[1]; Well no.=6473
  remaining activity at 1.25 µM: 99.5%
[2]; Well no.=6473
  remaining activity at 3.75 µM: 98.1%

## COc1ccccc1N1CCN(CCN2C(=O)CC3(CCCC3)CC2=O)CC1 [BMY 7378]
[1]; Well no.=5346
  remaining activity at 1.25 µM: 91.4%
[2]; Well no.=5346
  remaining activity at 3.75 µM: 88.7%

## C[C@H](CCC(=O)NCCS(=O)(=O)O)[C@H]1CC[C@H]2[C@@H]3[C@@H](O)C[C@@H]4C[C@H](O)CC[C@]4(C)[C@H]3CC[C@]12C [Tauroursodeoxycholate dihydrate]
[1]; Well no.=7112
  remaining activity at 1.25 µM: 95.4%
[2]; Well no.=7112
  remaining activity at 3.75 µM: 93.5%

## CNC(=O)c1ccc(C)c(-n2c(C)cc(OCc3ccc(F)cc3F)c(Br)c2=O)c1 [PH-797804]
[1]; Well no.=4695
  remaining activity at 1.25 µM: 104%
[2]; Well no.=4695
  remaining activity at 3.75 µM: 104%

## Nc1nc2c(ncn2[C@@H]2O[C@@H]3COP(=O)(O)O[C@H]4[C@@H](O)[C@H](n5cnc6c(=O)[nH]c(N)nc65)O[C@@H]4COP(=O)(O)O[C@H]3[C@H]2O)c(=O)[nH]1 [Cyclic-di-GMP]
[1]; Well no.=7774
  remaining activity at 1.25 µM: 103%
[1]; Well no.=8405
  remaining activity at 1.25 µM: 101%
[2]; Well no.=7774
  remaining activity at 3.75 µM: 102%
[2]; Well no.=8405
  remaining activity at 3.75 µM: 100%

## COc1ccc(-c2oc3c(CC=C(C)C)c(O[C@@H]4O[C@H](CO)[C@@H](O)[C@H](O)[C@H]4O)cc(O)c3c(=O)c2O[C@@H]2O[C@@H](C)[C@H](O)[C@@H](O)[C@H]2O)cc1 [Icariin]
[1]; Well no.=5200
  remaining activity at 1.25 µM: 99.9%
[2]; Well no.=5200
  remaining activity at 3.75 µM: 100%

## O=C1CN2Cc3c(ccc(Cl)c3Cl)N=C2N1 [Anagrelide]
[1]; Well no.=1629
  remaining activity at 1.25 µM: 95.8%
[2]; Well no.=1629
  remaining activity at 3.75 µM: 97.6%

## N#C/C(=C\c1ccc(O)c(O)c1)C(=O)c1ccc(O)c(O)c1 [Tyrphostin AG 538]
[1]; Well no.=1468
  remaining activity at 1.25 µM: 93.5%
[2]; Well no.=1468
  remaining activity at 3.75 µM: 92.4%

## CNC(=O)[C@H]1O[C@@H](n2cnc3c(NCc4cccc(I)c4)nc(Cl)nc32)[C@H](O)[C@@H]1O [Chloro-IB-MECA]
[1]; Well no.=395
  remaining activity at 1.25 µM: 95.2%
[2]; Well no.=395
  remaining activity at 3.75 µM: 95.2%

## CC1(C)CC(=O)c2c(C(F)(F)F)nn(-c3ccc(C(N)=O)c(N[C@H]4CC[C@H](OC(=O)CN)CC4)c3)c2C1 [PF-04929113 (SNX-5422)]
[1]; Well no.=4637
  remaining activity at 1.25 µM: 101%
[2]; Well no.=4637
  remaining activity at 3.75 µM: 105%

## NS(=O)(=O)NCCNc1nonc1/C(=N/O)Nc1ccc(F)c(Br)c1 [Epacadostat]
[1]; Well no.=8415
  remaining activity at 1.25 µM: 99.9%
[2]; Well no.=8415
  remaining activity at 3.75 µM: 95.7%

## CN1CCc2cc(O)cc3c2[C@H]1Cc1ccc(O)c(O)c1-3 [R(-)-2,10,11-Trihydroxyaporphine hybrobromide]
[1]; Well no.=588
  remaining activity at 1.25 µM: 104%
[2]; Well no.=588
  remaining activity at 3.75 µM: 100%

## NC(=O)c1cnccn1 [Pyrazinecarboxamide]
[1]; Well no.=1395
  remaining activity at 1.25 µM: 101%
[2]; Well no.=1395
  remaining activity at 3.75 µM: 99.2%

## NC(=O)c1ccc(OCC(O)CN2CC=C(c3ccc(F)cc3)CC2)cc1 (stereo not shown) [Ro 8-4304]
[1]; Well no.=1160
  remaining activity at 1.25 µM: 98.3%
[2]; Well no.=1160
  remaining activity at 3.75 µM: 99.3%

## C=CCCCCCCCCCCC(=O)O [12-Tridecenoic acid]
[1]; Well no.=4264
  remaining activity at 1.25 µM: 91.3%
[2]; Well no.=4264
  remaining activity at 3.75 µM: 98%

## CCCCCCCC/C=C/CCCCCCCC(=O)O [Elaidic acid]
[1]; Well no.=7259
  remaining activity at 1.25 µM: 96%
[2]; Well no.=7259
  remaining activity at 3.75 µM: 87.3%
